Assay results from patent publication US11780841B2, “3,6-methano-1H-pyrrolo[3,2-b]pyridine and 3,6-methano-1H-pyrrolo[3,2-c]pyridine compounds and medicaments using same” (priority 2018, dated 2023).

Each compound was assayed on recombinant rabies virus 1088 strain expressing Gaussia Luciferase (GLuc) (1088/GLuc). Conditions: read-out: Anti-rabies activity.
Type: cell-based
`O=C(NCCc1ccccc1)[C@@]12C[C@@H]3CN(Cc4ccc(F)cc4)[C@@H]([C@@H]3CN1)[C@H]2Cc1ccc(O)cc1` [IF-715] showed an IC50 of less than 5 µM. For `N=C(N)NCCCNC(=O)[C@]12NC[C@H]3C[C@H]1CN(Cc1ccccc1)[C@H]2[C@@H]3CCc1ccccc1` [IB-279], the IC50 was 10 to 30 µM. For `CC(C)C[C@@H]1[C@@H]2[C@@H]3CN[C@@]1(C(=O)NCc1ccccc1)C[C@@H]3CN2Cc1ccc(F)cc1` [IF-650], the IC50 was less than 5 µM. Work on `CC(C)CCNC(=O)C12NCC3CC1CN(Cc1ccc(O)cc1)C2C3Cc1ccccc1` (centres unmarked) [IB-574] yielded an IC50 of 10 to 30 µM. Compound `CC(C)CN1C[C@H]2C[C@]3(C(=O)NCc4cccc5ccccc45)NC[C@H]2[C@H]1[C@H]3Cc1cccc2ccccc12` [IF-778] has an IC50 of less than 5 µM. In the case of `COc1ccc(CN2CC3CC4C=NC3(C(=O)NCc3ccccc3)C2C4CC(C)C)cc1` (centres unmarked) [IIB-85], the IC50 is reported as 5 to 10 µM. For `NC(=O)CCNC(=O)[C@@]12C[C@@H]3CN(CCc4ccccc4)[C@@H]([C@@H]3CN1)[C@H]2CC(N)=O` [IF-219], the IC50 was 10 to 30 µM. `CC(C)CNC(=O)[C@]12NC[C@H]3C[C@H]1CN(CC(C)C)[C@H]2[C@@H]3CCCNC(=N)N` [IB-187] was tested, and the IC50 was 10 to 30 µM. With `CC(C)CN1C[C@H]2C[C@]3(C(=O)NCCC(=O)O)NC[C@H]2[C@H]1[C@H]3Cc1cccc2ccccc12` [IF-428] the IC50 was 10 to 30 µM. Work on `CCCCCCNC(=O)[C@@]12C[C@@H]3CN(Cc4ccc(F)cc4)[C@@H]([C@@H]3CN1)[C@H]2CCCNC(=N)N` [IF-298] yielded an IC50 of 10 to 30 µM. `CC(C)NC(=O)[C@@]12C[C@@H]3CN(Cc4cccc5ccccc45)[C@@H]([C@@H]3CN1)[C@H]2CCCNC(=N)N` [IF-244] showed an IC50 of less than 5 µM. In the case of `NC(=O)CCNC(=O)[C@@]12C[C@@H]3CN(Cc4cccc5ccccc45)[C@@H]([C@@H]3CN1)[C@H]2Cc1ccc(O)cc1` [IF-435], the IC50 is reported as less than 5 µM. `CC(C)CCNC(=O)[C@@]12C[C@@H]3CN(CCc4ccccc4)[C@@H]([C@@H]3CN1)[C@H]2CC(C)C` [IF-657] gave an IC50 of less than 5 µM. Work on `CC(C)CCN1C[C@H]2C[C@]3(C(=O)NCC(C)C)NC[C@H]2[C@H]1[C@H]3Cc1ccccc1` [IF-735] yielded an IC50 of 10 to 30 µM. `CCCCCCNC(=O)[C@]12NC[C@H]3C[C@H]1CN(Cc1ccccc1)[C@H]2[C@@H]3CCCNC(=N)N` [IB-249] gave an IC50 of 10 to 30 µM. `CC(C)CNC(=O)[C@@]12C[C@@H]3CN(Cc4ccccc4)[C@@H]([C@@H]3CN1)[C@H]2Cc1ccccc1` (relative stereo) [IF-6] was tested, and the IC50 was 10 to 30 µM. Compound `CC(C)CC[C@@H]1[C@H]2CN[C@@]3(C(=O)NCc4ccccc4)[C@@H](C2)CN(Cc2ccc(O)cc2)[C@@H]13` [IB-786] has an IC50 of 10 to 30 µM. `CC(C)C[C@@H]1[C@H]2CN[C@@]3(C(=O)NCc4ccccc4)[C@@H](C2)CN(Cc2ccc(C(C)(C)C)cc2)[C@@H]13` [IB-874] showed an IC50 of 5 to 10 µM. For `CC(C)CCN1C[C@@H]2C[C@@H]3CN[C@]2(C(=O)NCc2ccccc2)[C@@H]1[C@@H]3CC(C)C` [IB-876], the IC50 was 10 to 30 µM. With `O=C(NCc1ccccc1)[C@]12NC[C@H]3C[C@H]1CN(CCO)[C@H]2[C@@H]3Cc1ccccc1` [IB-619] the IC50 was 10 to 30 µM. For `CC(C)CCN1C[C@@H]2C[C@@H]3CN[C@]2(C(=O)NCCC(N)=O)[C@@H]1[C@@H]3Cc1cccc2ccccc12` [IB-703], the IC50 was less than 5 µM. Compound `CC(C)CNC(=O)[C@@]12C[C@@H]3CN(CC4CCCCC4)[C@@H]([C@@H]3CN1)[C@H]2Cc1cccc2ccccc12` [IF-646] has an IC50 of less than 5 µM. Compound `CC(C)CNC(=O)[C@]12NC[C@H]3C[C@H]1CN(Cc1ccc(F)cc1)[C@H]2[C@@H]3Cc1ccc(O)cc1` [IB-631] has an IC50 of 10 to 30 µM. Compound `CC(C)C[C@@H]1[C@@H]2[C@@H]3CN[C@@]1(C(=O)NCc1ccccc1)C[C@@H]3CN2Cc1ccc(C(C)(C)C)cc1` [IF-849] has an IC50 of 5 to 10 µM. `CC(C)C[C@@H]1[C@H]2CN[C@@]3(C(=O)NCCO)[C@@H](C2)CN(CCc2ccccc2)[C@@H]13` [IB-641] was tested, and the IC50 was 10 to 30 µM. `N=C(N)NCCCNC(=O)[C@]12NC[C@H]3C[C@H]1CN(CCc1ccccc1)[C@H]2[C@@H]3Cc1ccccc1` [IB-344] showed an IC50 of 10 to 30 µM. Work on `CC(C)CCN1CC2CC3C=NC2(C(=O)NCc2ccc(Cl)cc2)C1C3CC(C)C` (centres unmarked) [IIB-103] yielded an IC50 of 5 to 10 µM. For `CC(C)CCNC(=O)[C@@]12C[C@@H]3CN(CC4CCCCC4)[C@@H]([C@@H]3CN1)[C@H]2CC(C)C` [IF-659], the IC50 was 10 to 30 µM. `CC(C)CN1C[C@H]2C[C@]3(C(=O)NCc4ccccc4)NC[C@H]2[C@H]1[C@H]3Cc1cccc2ccccc12` [IF-753] gave an IC50 of 10 to 30 µM. Work on `CC(C)CC[C@@H]1[C@H]2CN[C@@]3(C(=O)NCCc4ccccc4)[C@@H](C2)CN(CC(N)=O)[C@@H]13` [IB-89] yielded an IC50 of less than 5 µM. For `O=C(NCc1ccc(F)cc1)C12NCC3CC1CN(Cc1ccccc1)C2C3CCc1ccccc1` (centres unmarked) [IB-568], the IC50 was 10 to 30 µM. Compound `O=C(NCc1ccc(F)cc1)[C@]12NC[C@H]3C[C@H]1CN(CCO)[C@H]2[C@@H]3Cc1ccccc1` [IB-479] has an IC50 of 10 to 30 µM. In the case of `CC(C)CCN1C[C@H]2C[C@]3(C(=O)NCc4ccc(F)cc4)NC[C@H]2[C@H]1[C@H]3Cc1ccccc1` (relative stereo) [IF-547], the IC50 is reported as less than 5 µM. `O=C(O)CC[C@@H]1[C@@H]2[C@@H]3CN[C@@]1(C(=O)NCc1ccc(O)cc1)C[C@@H]3CN2CC1CCCCC1` [IF-447] gave an IC50 of 10 to 30 µM. Compound `CCCCCCNC(=O)[C@@]12C[C@@H]3CN(CC4CCCCC4)[C@@H]([C@@H]3CN1)[C@H]2Cc1ccc(O)cc1` (relative stereo) [IF-514] has an IC50 of less than 5 µM. `O=C(NCc1ccc(F)cc1)[C@@]12C[C@@H]3CN(Cc4ccccc4)[C@@H]([C@@H]3CN1)[C@H]2Cc1ccccc1` (relative stereo) [IF-561] gave an IC50 of less than 5 µM. Compound `CCOc1ccc(CN2CC3CC4(C(=O)NCc5ccccc5)N=CC3C2C4CC(C)C)cc1` (centres unmarked) [IIF-97] has an IC50 of 10 to 30 µM. Work on `O=C(NCCO)[C@@]12C[C@@H]3CN(Cc4cccc5ccccc45)[C@@H]([C@@H]3CN1)[C@H]2Cc1cccc2ccccc12` [IF-614] yielded an IC50 of 10 to 30 µM. `CC(C)C[C@@H]1[C@H]2CN[C@@]3(C(=O)NCc4ccccc4)[C@@H](C2)CN(Cc2ccc(F)cc2)[C@@H]13` [IB-773] showed an IC50 of less than 5 µM. Work on `O=C(NCCc1ccccc1)[C@@]12C[C@@H]3CN(CC4CCCCC4)[C@@H]([C@@H]3CN1)[C@H]2Cc1ccc(O)cc1` [IF-439] yielded an IC50 of less than 5 µM. `CC(C)CC[C@@H]1[C@H]2CN[C@@]3(C(=O)NCc4ccc(F)cc4)[C@@H](C2)CN(CCO)[C@@H]13` [IB-657] gave an IC50 of 10 to 30 µM. For `CCCCCCNC(=O)C12NCC3CC1CN(Cc1ccccc1)C2C3Cc1ccccc1` (centres unmarked) [IB-562], the IC50 was 10 to 30 µM. For `NC(=O)CCNC(=O)[C@]12NC[C@H]3C[C@H]1CN(Cc1ccccc1)[C@H]2[C@@H]3Cc1ccccc1` [IB-734], the IC50 was 10 to 30 µM. Work on `CC(C)CNC(=O)[C@]12NC[C@H]3C[C@H]1CN(Cc1ccccc1)[C@H]2[C@@H]3CCCNC(=N)N` [IB-198] yielded an IC50 of 10 to 30 µM. In the case of `NC(=O)CN1C[C@@H]2C[C@@H]3CN[C@]2(C(=O)NCc2cccc4ccccc24)[C@@H]1[C@@H]3Cc1ccccc1` (relative stereo) [IB-82], the IC50 is reported as 10 to 30 µM. `NC(=O)C[C@@H]1[C@@H]2[C@@H]3CN[C@@]1(C(=O)NCc1ccc(O)cc1)C[C@@H]3CN2CC1CCCCC1` [IF-247] gave an IC50 of 10 to 30 µM. For `Cc1ccc(CN2C[C@H]3C[C@@]4(C(=O)NCc5ccccc5)[C@H](CC(C)C)[C@@H]2[C@@H]3CN4C(=O)OCC(C)C)cc1` [IF-861], the IC50 was 5 to 10 µM. `O=C(NCCc1ccccc1)[C@@]12C[C@@H]3CN(CCO)[C@@H]([C@@H]3CN1)[C@H]2Cc1cccc2ccccc12` [IF-610] showed an IC50 of 10 to 30 µM. `O=C(NCCc1ccccc1)[C@@]12C[C@@H]3CN(Cc4cccc5ccccc45)[C@@H]([C@@H]3CN1)[C@H]2Cc1ccc(O)cc1` [IF-708] was tested, and the IC50 was less than 5 µM. Work on `CC(C)CC[C@@H]1[C@@H]2[C@@H]3CN[C@@]1(C(=O)NCc1ccc(O)cc1)C[C@@H]3CN2Cc1ccc(F)cc1` [IF-479] yielded an IC50 of less than 5 µM. In the case of `CC(C)CC[C@@H]1[C@@H]2[C@@H]3CN[C@@]1(C(=O)NCc1ccc(F)cc1)C[C@@H]3CN2CC(N)=O` (relative stereo) [IF-95], the IC50 is reported as 10 to 30 µM. Work on `CC(C)CNC(=O)[C@@]12C[C@@H]3CN(CCC(=O)O)[C@@H]([C@@H]3CN1)[C@H]2Cc1ccc(O)cc1` [IF-455] yielded an IC50 of 10 to 30 µM. For `CCOc1ccc(CN2CC3CC4C=NC3(C(=O)NCc3ccccc3)C2C4CC(C)C)cc1` (centres unmarked) [IIB-97], the IC50 was 10 to 30 µM. Work on `CC(C)C[C@@H]1[C@@H]2[C@@H]3CN[C@@]1(C(=O)NCCO)C[C@@H]3CN2CC1CCCCC1` [IF-606] yielded an IC50 of 10 to 30 µM. `CC(C)CCNC(=O)[C@]12NC[C@H]3C[C@H]1CN(CC(C)C)[C@H]2[C@@H]3Cc1ccc(O)cc1` [IB-684] showed an IC50 of 10 to 30 µM. With `CC(C)CC[C@@H]1[C@H]2CN[C@@]3(C(=O)NCCC(N)=O)[C@@H](C2)CN(Cc2ccc(F)cc2)[C@@H]13` [IB-365] the IC50 was 10 to 30 µM. Work on `CC(C)C[C@@H]1[C@@H]2[C@@H]3CN[C@@]1(C(=O)NCc1cccc4ccccc14)C[C@@H]3CN2Cc1ccccc1` [IF-837] yielded an IC50 of 5 to 10 µM. `CC(C)CCNC(=O)[C@@]12C[C@@H]3CN(CC4CCCCC4)[C@@H]([C@@H]3CN1)[C@H]2Cc1ccc(O)cc1` [IF-709] was tested, and the IC50 was 10 to 30 µM. `CC(C)C[C@@H]1[C@H]2CN[C@@]3(C(=O)NC(C)C)[C@@H](C2)CN(CCCNC(=N)N)[C@@H]13` [IB-176] gave an IC50 of 10 to 30 µM. `CC(C)CCN1CC2CC3CNC2(C(=O)NCc2ccc(F)cc2)C1C3CC(C)C` (centres unmarked) [IB-553] gave an IC50 of less than 5 µM. `CC(C)C[C@@H]1[C@H]2CN[C@@]3(C(=O)NCCc4ccccc4)[C@@H](C2)CN(CC(C)C)[C@@H]13` [IB-495] showed an IC50 of less than 5 µM. For `NC(=O)CN1C[C@@H]2C[C@@H]3CN[C@]2(C(=O)NCc2cccc4ccccc24)[C@@H]1[C@@H]3Cc1cccc2ccccc12` [IB-90], the IC50 was less than 5 µM. `CC(C)C[C@@H]1[C@H]2CN[C@@]3(C(=O)NCc4ccc(F)cc4)[C@@H](C2)CN(Cc2ccc(O)cc2)[C@@H]13` [IB-499] gave an IC50 of less than 5 µM. `COc1ccc(CN2C[C@H]3C[C@]4(C(=O)NCc5ccccc5)NC[C@H]3[C@H]2[C@H]4CC(C)C)cc1` [IF-841] gave an IC50 of 5 to 10 µM. Work on `CC(C)CN1C[C@H]2C[C@]3(C(=O)NCc4ccc(O)cc4)NC[C@H]2[C@H]1[C@H]3CCc1ccccc1` (relative stereo) [IF-576] yielded an IC50 of 10 to 30 µM. In the case of `CC(C)CC[C@@H]1[C@@H]2[C@@H]3CN[C@@]1(C(=O)NCc1ccc(O)cc1)C[C@@H]3CN2CCc1ccccc1` [IF-468], the IC50 is reported as 10 to 30 µM. With `O=C(NCc1ccccc1)[C@@]12C[C@@H]3CN(Cc4cccc5ccccc45)[C@@H]([C@@H]3CN1)[C@H]2Cc1ccccc1` (relative stereo) [IF-42] the IC50 was 10 to 30 µM.

Same assay, conditions: read-out: IC50
Compound `CC(C)CNC(=O)[C@@]12C[C@@H]3CN(Cc4ccccc4)[C@@H]([C@@H]3CN1)[C@H]2Cc1ccccc1` (relative stereo) [IF-6] has an IC50 of 16.3 µM.
